In patent publication US12234232B2, “Aromatic heterocyclic compound with kinase inhibitory activity” (SHANGHAI ENNOVABIO PHARMACEUTICALS CO., LTD., priority 2018, dated 2025):

Tests used:
JAK3 protein = target: T1, JAK3 protein (Homo sapiens, UniProt P52333); experiment: In vitro JAK3 kinase activity assay (HTRF kinEASE TK); format: biochemical; conditions: 0.75 μM ATP, 25 minutes, room temperature; read-out: IC50 JAK3 (enzyme activity assay)
T1 construct: purchased Carna Biosciences
T1 sequence (P52333 1-1124): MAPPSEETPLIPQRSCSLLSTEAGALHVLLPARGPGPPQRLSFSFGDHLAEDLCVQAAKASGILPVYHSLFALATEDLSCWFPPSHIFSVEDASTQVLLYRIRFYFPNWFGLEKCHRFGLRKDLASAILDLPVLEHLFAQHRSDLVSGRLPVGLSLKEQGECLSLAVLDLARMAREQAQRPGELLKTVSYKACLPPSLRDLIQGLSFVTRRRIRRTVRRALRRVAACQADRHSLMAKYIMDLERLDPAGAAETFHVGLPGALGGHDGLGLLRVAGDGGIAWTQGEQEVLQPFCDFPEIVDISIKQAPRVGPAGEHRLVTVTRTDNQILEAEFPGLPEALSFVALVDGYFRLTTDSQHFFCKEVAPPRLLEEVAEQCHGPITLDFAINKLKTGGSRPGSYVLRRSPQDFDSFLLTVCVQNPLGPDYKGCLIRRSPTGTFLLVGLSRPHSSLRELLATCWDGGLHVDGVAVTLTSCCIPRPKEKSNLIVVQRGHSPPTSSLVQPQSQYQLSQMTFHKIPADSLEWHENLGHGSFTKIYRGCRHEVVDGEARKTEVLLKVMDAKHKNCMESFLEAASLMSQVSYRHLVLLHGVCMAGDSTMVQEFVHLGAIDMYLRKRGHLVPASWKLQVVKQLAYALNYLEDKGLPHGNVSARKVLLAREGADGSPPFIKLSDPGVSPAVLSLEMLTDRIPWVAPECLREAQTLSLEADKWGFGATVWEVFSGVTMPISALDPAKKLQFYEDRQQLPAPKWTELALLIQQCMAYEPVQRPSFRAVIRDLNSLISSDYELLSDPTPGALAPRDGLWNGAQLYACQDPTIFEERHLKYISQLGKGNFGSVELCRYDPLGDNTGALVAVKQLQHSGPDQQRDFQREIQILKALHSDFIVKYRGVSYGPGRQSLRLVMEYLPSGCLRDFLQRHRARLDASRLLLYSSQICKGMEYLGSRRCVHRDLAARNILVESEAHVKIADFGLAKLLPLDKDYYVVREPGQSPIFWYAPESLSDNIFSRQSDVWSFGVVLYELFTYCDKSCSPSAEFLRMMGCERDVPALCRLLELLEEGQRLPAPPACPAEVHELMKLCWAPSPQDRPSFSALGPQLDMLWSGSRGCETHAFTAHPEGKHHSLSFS
Description: (§1) Recombinant human JAK1 protein was purchased from Thermo Fisher. JAK2 and JAK3 proteins were purchased from Carna Biosciences. HTRF kinEASE TK kit was purchased from Cisbio Bioassays. BioTek microplate reader Synergy Neo 2 was used to read the plate.
(§2) The test compounds were of 4-fold serial dilution, and the final concentration ranged from 10 μM to 0.04 nM in duplicates for each concentration. The concentration of DMSO in the reaction system was 1%.
(§3) The reaction included 0.004 ng/gi JAK 3 protein kinase, 1 μM TK Substrate-biotin peptide substrate, 0.75 μM ATP, 1× enzymatic buffer, 5 mM MgCl2, and 1 mM DTT. The detection plate was White Proxiplate 384-Plus plate (PerkinElmer), and the mixture (10 μl) was reacted at room temperature for 25 minutes.
(§4) Reaction detection: 10 μl of detection reagent was added to the reaction plate containing final concentration of 0.125 μM of SA-XL665 and 5 μl 1×TK-Antibody. The mixture was incubated overnight at room temperature. The plate was read using Synergy Neo 2.
(§5) Data analysis: 665/620 Ratio was converted into inhibition rate (%) through the following formula: inhibition rate (%)=(Ratiomax−Ratiotest)/(Ratiomax−Ratiomin)×100%. Ratiomax is a positive control without detection compound, Ratiomin is a negative control without detection compound and kinase, Ratiotest is the detection value of each concentration of different compounds. 4 parameter curve fitting was performed to measure the IC50 (nM) values. The details are shown in, Table 1.

Mouse pharmacokinetics = format: in vivo; conditions: CD-1 mice, 5 mg/kg, P.O.
Description: Test compound was intravenously (IV) or orally (PO) administrated to CD-1 mice. Blood samples were collected at different time points as indicated below. The concentration of the compounds in the mouse plasma was determined by LC-MS/MS and related parameters were calculated. The details are as follows: the required amount of the test product was taken to prepare a solution of the required concentration for intravenous injection or oral administration. The age of the animals was about 6-8 weeks at the beginning of the dosing experiment. Blood sampling time points are 0.083 h, 0.25 h, 0.5 h, 1 h, 2 h, 4 h, 8 h and 24 h after compound administration. The Phoenix WinNonlin 7.0 software was used to calculate the pharmacokinetic parameters through the blood drug concentration data at different time points.

JAK1 [1] = target: T2, JAK1 (Homo sapiens, UniProt P23458); experiment: In vitro JAK1 kinase activity assay (HTRF kinEASE TK); format: biochemical; set-up: purchased Thermo Fisher; conditions: 1.1 μM ATP, 60 minutes, room temperature; read-out: IC50 JAK1 (enzyme activity assay)
Description: as §1, §2
The reaction included 0.5 ng/μl JAK 1 protein kinase, 1 μM TK Substrate-biotin peptide substrate, 1.1 μM ATP, 1× enzymatic buffer, 5 mM MgCl2, 1 mM MnCl2, 1 mM DTT, and 2.5 nM SEB. The detection plate was White Proxiplate 384-Plus plate (PerkinElmer), and the mixture (10 μl) was reacted at room temperature for 60 minutes.
as §4, §5

JAK2 [2] = target: T3, JAK2 (Homo sapiens, UniProt O60674); experiment: In vitro JAK2 kinase activity assay (HTRF kinEASE TK); format: biochemical; set-up: purchased Carna Biosciences; conditions: 2.7 μM ATP, 25 minutes, room temperature; read-out: IC50 JAK2 (enzyme activity assay)
Description: as §1, §2
as §3, with “included 0.001 ng/μl” for “included 0.004 ng/gi”, “JAK 2” for “JAK 3”, “substrate, 2.7” for “substrate, 0.75”
as §4, §5

JAK1 [3] = target: T2, JAK1; experiment: Cellular JAK1 activity assay: IL-6-stimulated STAT3 phosphorylation in TF-1 cells; format: cell-based; set-up: endogenous in cells; host or cells: TF-1 cells (ATCC); conditions: IL-6 (30 ng/mL), pSTAT3, read-out: IC50 Cell JAK1
Description: (§6) In TF-1 cells, IL-6 stimulation leads to phosphorylation of STAT3 through JAK1, while EPO stimulants phosphorylation of STAT5 via JAK2.
(§7) TF-1 cells were obtained from American Type Culture Collection (ATCC). TF-1 cells were starved overnight (cell density was 100,000 cells/well at plating) in OptiMEM medium without phenol red containing 0.5% fetal bovine serum (FBS), 0.1 mM non-essential amino acids (NEAA), 1 mM sodium pyruvate at 37° C. The compound was serially diluted in DMSO, added to TF-1 cells and incubated at 37° C. for 20 minutes. The final concentration of DMSO was 0.2%. Then, human recombinant cytokine IL-6 (30 ng/mL) or EPO (10 U/mL) was added to the wells containing TF-1 cells. After the cell plate was incubated for 30 minutes, cells were lysed, and the phosphorylation of STAT3 (IL-6) or STAT5 (EPO) in the cell lysate (pSTAT3/total STAT3 Elisa Kit: CST #7300C/CST #7305C; pSTAT5 and total STAT5 Elisa Kit: Abcam #ab205715) was measured. The IC50 value was determined as the concentration of the compound required to inhibit STAT phosphorylation by 50% relative to the measured DMSO control.

JAK2 [4] = target: T3, JAK2; experiment: Cellular JAK2 activity assay: EPO-stimulated STAT5 phosphorylation in TF-1 cells; format: cell-based; set-up: endogenous in cells; host or cells: TF-1 cells (ATCC); conditions: EPO (10 U/mL), pSTAT5, read-out: IC50 Cell JAK2
Description: as §6, §7

T2 sequence (P23458 whole entry): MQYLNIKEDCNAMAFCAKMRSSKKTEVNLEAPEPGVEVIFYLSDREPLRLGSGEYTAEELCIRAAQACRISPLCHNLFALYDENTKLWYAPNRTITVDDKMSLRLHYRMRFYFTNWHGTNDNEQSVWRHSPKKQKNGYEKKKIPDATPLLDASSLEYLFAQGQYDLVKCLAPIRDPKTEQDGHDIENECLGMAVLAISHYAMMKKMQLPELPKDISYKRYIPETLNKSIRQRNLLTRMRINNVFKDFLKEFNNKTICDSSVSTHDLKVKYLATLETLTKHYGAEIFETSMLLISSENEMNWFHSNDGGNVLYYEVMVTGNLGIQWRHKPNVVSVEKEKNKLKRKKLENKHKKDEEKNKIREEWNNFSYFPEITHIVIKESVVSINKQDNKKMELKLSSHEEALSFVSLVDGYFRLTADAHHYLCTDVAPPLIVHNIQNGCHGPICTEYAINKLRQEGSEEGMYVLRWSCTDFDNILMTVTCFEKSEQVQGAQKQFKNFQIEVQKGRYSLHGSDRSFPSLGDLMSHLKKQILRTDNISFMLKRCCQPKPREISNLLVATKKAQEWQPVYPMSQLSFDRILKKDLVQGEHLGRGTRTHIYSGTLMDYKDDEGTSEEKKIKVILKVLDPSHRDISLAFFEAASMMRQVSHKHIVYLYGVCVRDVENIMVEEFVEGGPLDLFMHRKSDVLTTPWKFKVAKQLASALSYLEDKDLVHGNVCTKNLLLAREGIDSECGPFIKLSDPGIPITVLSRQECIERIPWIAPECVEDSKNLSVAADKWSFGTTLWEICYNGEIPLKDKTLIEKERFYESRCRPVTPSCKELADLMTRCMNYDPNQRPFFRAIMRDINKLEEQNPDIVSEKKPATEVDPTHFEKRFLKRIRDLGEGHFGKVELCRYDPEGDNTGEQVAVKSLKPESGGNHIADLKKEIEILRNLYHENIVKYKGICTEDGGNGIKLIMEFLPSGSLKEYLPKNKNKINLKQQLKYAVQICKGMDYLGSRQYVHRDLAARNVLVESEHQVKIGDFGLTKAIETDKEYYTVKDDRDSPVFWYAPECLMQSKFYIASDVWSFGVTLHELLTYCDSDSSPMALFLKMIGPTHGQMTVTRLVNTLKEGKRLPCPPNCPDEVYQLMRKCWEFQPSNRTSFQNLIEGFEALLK
T3 sequence (O60674 whole entry): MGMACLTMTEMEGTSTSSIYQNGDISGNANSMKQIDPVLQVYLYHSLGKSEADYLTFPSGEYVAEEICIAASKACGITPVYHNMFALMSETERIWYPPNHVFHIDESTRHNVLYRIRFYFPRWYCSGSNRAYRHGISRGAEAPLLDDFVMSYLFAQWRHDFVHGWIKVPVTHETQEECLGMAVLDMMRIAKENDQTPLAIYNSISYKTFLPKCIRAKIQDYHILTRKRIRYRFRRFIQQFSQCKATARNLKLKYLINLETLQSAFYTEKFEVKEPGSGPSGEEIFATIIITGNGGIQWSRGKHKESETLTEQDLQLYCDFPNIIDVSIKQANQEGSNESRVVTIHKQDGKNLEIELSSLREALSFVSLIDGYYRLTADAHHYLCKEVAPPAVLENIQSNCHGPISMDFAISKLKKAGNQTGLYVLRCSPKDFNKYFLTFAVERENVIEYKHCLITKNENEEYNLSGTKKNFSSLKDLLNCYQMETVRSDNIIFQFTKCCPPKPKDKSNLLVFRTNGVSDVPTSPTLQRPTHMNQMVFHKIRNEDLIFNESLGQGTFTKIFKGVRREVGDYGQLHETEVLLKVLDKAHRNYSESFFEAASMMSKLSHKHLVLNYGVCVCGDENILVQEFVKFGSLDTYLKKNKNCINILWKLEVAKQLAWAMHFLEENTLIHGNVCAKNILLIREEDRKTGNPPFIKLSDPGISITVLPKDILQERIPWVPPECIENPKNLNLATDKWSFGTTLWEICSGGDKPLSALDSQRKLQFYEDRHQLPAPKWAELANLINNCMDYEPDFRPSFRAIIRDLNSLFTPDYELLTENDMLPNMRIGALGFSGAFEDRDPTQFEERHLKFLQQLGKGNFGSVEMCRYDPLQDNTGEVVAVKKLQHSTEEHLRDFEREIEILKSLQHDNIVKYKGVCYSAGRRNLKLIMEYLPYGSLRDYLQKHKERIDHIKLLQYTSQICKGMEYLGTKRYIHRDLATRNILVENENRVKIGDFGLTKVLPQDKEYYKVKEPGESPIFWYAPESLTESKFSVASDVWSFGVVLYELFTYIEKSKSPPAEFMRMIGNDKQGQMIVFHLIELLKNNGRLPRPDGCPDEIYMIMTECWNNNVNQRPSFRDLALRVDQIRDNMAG

CC[C@H](C(=O)Nc1nccc2c(-c3nc(Nc4cccc(S(C)(=O)=O)c4F)ncc3C)c[nH]c12)N1CC2CCC(C1)N2C [Example 25, (R)—N-(3-(2-((2-Fluoro-3-(methylsulfonyl)phenyl)amino)-5-methylpyrimidin-4-yl)-1H-pyrrolo[2,3-c]pyridin-7-yl)-2-(8-methyl-3,8-diazabicyclo[3.2.1]octane-3-yl)butanamide]
IC50 (JAK3 protein): 500 to 10000 nM
F (Mouse pharmacokinetics): 66.1%
Cmax (Mouse pharmacokinetics; mouse, po, plasma): 155 ng/mL
half-life (Mouse pharmacokinetics; mouse, po, plasma): 3.57 h
AUC(0-t) (Mouse pharmacokinetics; mouse, po, plasma, read-out: AUC0-24 hr): 946 ng·h/mL
IC50 (JAK1 [1]): < 5 nM
IC50 (JAK2 [2]): < 100 nM
IC50 (JAK1 [3]): 100 to 1000 nM
IC50 (JAK2 [4]): > 20000 nM
